Results published in paper PMC10653547, “Synergistic effect of two antimicrobial peptides, BP203 and MAP-0403 J-2 with conventional antibiotics against colistin-resistant Escherichia coli and Klebsiella pneumoniae clinical isolates” (PLOS ONE, 2023).
Converted amounts (≈) assume the structure as drawn. Where two headings read alike, the source gives them in different places.

Tests used:
[1] = at 150 μM (~300 μg/mL); cited from earlier work
Text: The stability of AMPs is crucial for storage and applications. Temperature and pH are critical parameters impacting AMP stability. In addition, the good stability of AMPs to physiological salts and serum has been considered a desirable property for clinical applications. In this study, BP203 and MAP-0403 J-2 retained antibacterial activity under elevated temperatures, various pH conditions, and in the presence of physiological salts and serum environment. […] The hemolytic activity of BP203 at 150 μM (~300 μg/mL) wa ...

[2] = test system: K. pneumoniae ATCC BAA-1706
Experimental: (§1) The MICs of BP203 and MAP-0403 J-2 against clinically colistin-resistant E. coli and K. pneumoniae isolates were determined using the broth microdilution method, according to CLSI recommendations. Briefly, the peptides were subjected to serial dilution in cation-adjusted Mueller-Hinton broth (CAMHB) and added to a 96-well microtiter plate (Wuxi NEST Biotechnology, Wuxi, China). Subsequently, bacterial suspensions from freshly mid-log phase cultures were diluted to 10^6 CFU/mL with CAMHB, and introduced to each well containing the peptides.
(§2) The antibacterial activity of BP203 and MAP-0403 J-2 was evaluated concerning their response to temperature, pH, serum, and salt ions using the MIC assay, following the previously mentioned procedure. The MIC values of peptides were determined against E. coli ATCC29522 and K. pneumoniae ATCC BAA-1706. […] For the pH stability assay, both peptides were incubated in buffers with different pH values (100 mM buffers: glycine-HCl buffer (pH 2.0), sodium acetate buffer (pH 4.0), sodium phosphate buffer (pH 6.0), Tris-HCl buffer (pH 8.0), and glycine-NaOH buffer (pH 10.0)) for 1 h at 37°C. […] For serum stability assay, both peptides were exposed to 25% and 50% fetal bovine serum (FBS) for 1 h at 37°C, followed by a heat activation step for 30 min at 60°C. Afterward, the peptide solutions were serially diluted and MIC was subsequently determined. For the salt stability assay, each peptide was treated in MHB supplemented with different salts at their physiological concentrations; NaCl (100, 150, and 200 mM), MgCl2 (0.5, 1 and 2 mM), and FeCl3 […]. The serial dilutions of peptides were incubated with tested strains for MIC testing. The MICs were observed after 20–24 h of incubation at 37°C.

E. coli ATCC 25922 = test system: E. coli ATCC 25922
Experimental: as §1, §2

[3] = test system: E. coli ATCC 25922 and colistin-resistant E. coli clinical isolates
Experimental: as §1

[4] = test system: K. pneumoniae ATCC BAA-1706 and colistin-resistant K. pneumoniae clinical isolates
Experimental: as §1

[5] = test system: MRC-5 (CCL-171) normal lung fibroblast cells; experiment: Cytotoxicity assay using MTT; format: cell-based, human
Experimental: MRC-5 (CCL-171) cell line, a representative of normal lung fibroblast cells, was used to investigate the cytotoxic effects of two AMPs, BP203 and MAP-0403 J-2. The cells were grown in Dulbecco’s Modified Eagle Medium (DMEM, Cytiva Life Sciences, Marlborough, MA, USA), supplemented with 10% fetal bovine serum (FBS), 1% penicillin (10,000 U/mL) and streptomycin (10,000 μg/mL) (Gibco, Waltham, MA, USA). 2×10^4 cells were seeded into each well of a 96-well plate and allowed to adhere for 24 h. Then, these cells were subjected to exposure to a medium containing a prepared two-fold serial dilution of BP203 or MAP-0403 J-2. […] 3-(4,5-Dimethylthiazol-2-yl)-2,5-Diphenyltetrazolium Bromide (MTT) was introduced into each well to achieve a concentration of 0.5 mg/mL followed by 4 h. incubation. Subsequently, formazan crystals were dissolved through the addition of 100 μL of a solubilizing solution composed of 10% SDS in 0.1 N HCl and the developed color was measured using a microtiter plate reader at an optical density (OD) of 570 nm. Cell viability was calculated as follows: (ODsample/ODcontrol) × 100.

[6] = 25% fetal bovine serum, 1 h at 37 °C
[7] = 50% fetal bovine serum, 1 h at 37 °C
[8] = pH 2, 100 mM glycine-HCl buffer, 1 h at 37 °C, neutralized
[9] = pH 4, 100 mM sodium acetate buffer, 1 h at 37 °C, neutralized
[10] = pH 6, 100 mM sodium phosphate buffer, 1 h at 37 °C, neutralized
[11] = pH 8, 100 mM Tris-HCl buffer, 1 h at 37 °C, neutralized
[12] = pH 10, 100 mM glycine-NaOH buffer, 1 h at 37 °C, neutralized
[13] = peptide incubated 1 h at 25 °C (control)

## CC[C@H](C)[C@H](NC(=O)[C@H](CCCCN)NC(=O)[C@H](CCCCN)NC(=O)[C@H](Cc1ccccc1)NC(=O)[C@H](CC(C)C)NC(=O)[C@H](CCCCN)NC(=O)[C@@H](N)CCCCN)C(=O)N[C@@H](CC(C)C)C(=O)N[C@@H](CCCNC(=N)N)C(=O)N[C@@H](Cc1ccc(O)cc1)C(=O)N[C@@H](CC(C)C)C(N)=O [BP203]
[1]
  Hemolytic activity: 31%
[2]; 0% FBS (control)
  MIC after FBS treatment: 4 µg/mL (≈ 2.76 µM)
[2]; [6]
  MIC after FBS treatment: 4 µg/mL (≈ 2.76 µM)
[2]; [7]
  MIC after FBS treatment: 4 µg/mL (≈ 2.76 µM)
[2]; [8]
  MIC after pH treatment: 4 μg/mL
[2]; [9]
  MIC after pH treatment: 4 μg/mL
[2]; [10]
  MIC after pH treatment: 4 μg/mL
[2]; pH 7 (control)
  MIC after pH treatment: 4 μg/mL
[2]; [11]
  MIC after pH treatment: 4 μg/mL
[2]; [12]
  MIC after pH treatment: 4 μg/mL
[2]; [13]
  MIC after temperature treatment: 4 µg/mL (≈ 2.76 µM)
[2]; peptide incubated 1 h at 37 °C
  MIC after temperature treatment: 4 µg/mL (≈ 2.76 µM)
[2]; peptide incubated 1 h at 50 °C
  MIC after temperature treatment: 4 µg/mL (≈ 2.76 µM)
[2]; peptide incubated 1 h at 70 °C
  MIC after temperature treatment: 4 µg/mL (≈ 2.76 µM)
[2]; peptide incubated 1 h at 90 °C
  MIC after temperature treatment: 4 µg/mL (≈ 2.76 µM)
E. coli ATCC 25922; 0% FBS (control)
  MIC after FBS treatment: 4 µg/mL (≈ 2.76 µM)
E. coli ATCC 25922; [6]
  MIC after FBS treatment: 4 µg/mL (≈ 2.76 µM)
E. coli ATCC 25922; [7]
  MIC after FBS treatment: 8 µg/mL (≈ 5.52 µM)
E. coli ATCC 25922; [8]
  MIC after pH treatment: 4 μg/mL
E. coli ATCC 25922; [9]
  MIC after pH treatment: 4 μg/mL
E. coli ATCC 25922; [10]
  MIC after pH treatment: 4 μg/mL
E. coli ATCC 25922; pH 7 (control)
  MIC after pH treatment: 4 μg/mL
E. coli ATCC 25922; [11]
  MIC after pH treatment: 4 μg/mL
E. coli ATCC 25922; [12]
  MIC after pH treatment: 4 μg/mL
E. coli ATCC 25922; [13]
  MIC after temperature treatment: 4 µg/mL (≈ 2.76 µM)
E. coli ATCC 25922; peptide incubated 1 h at 37 °C
  MIC after temperature treatment: 4 µg/mL (≈ 2.76 µM)
E. coli ATCC 25922; peptide incubated 1 h at 50 °C
  MIC after temperature treatment: 4 µg/mL (≈ 2.76 µM)
E. coli ATCC 25922; peptide incubated 1 h at 70 °C
  MIC after temperature treatment: 4 µg/mL (≈ 2.76 µM)
E. coli ATCC 25922; peptide incubated 1 h at 90 °C
  MIC after temperature treatment: 4 µg/mL (≈ 2.76 µM)
[3]; E. coli ATCC 25922
  MBC: 4 µg/mL (≈ 2.76 µM)
  MIC: 4 µg/mL (≈ 2.76 µM)
[3]; EC-01
  MBC: 2 µg/mL (≈ 1.38 µM)
  MIC: 2 µg/mL (≈ 1.38 µM)
[3]; EC-02
  MBC: 8 µg/mL (≈ 5.52 µM)
  MIC: 8 µg/mL (≈ 5.52 µM)
[3]; EC-03
  MBC: 2 µg/mL (≈ 1.38 µM)
  MIC: 2 µg/mL (≈ 1.38 µM)
[3]; EC-04
  MBC: 4 µg/mL (≈ 2.76 µM)
  MIC: 2 µg/mL (≈ 1.38 µM)
[3]; EC-05
  MBC: 8 µg/mL (≈ 5.52 µM)
  MIC: 8 µg/mL (≈ 5.52 µM)
[3]; EC-06
  MBC: 2 µg/mL (≈ 1.38 µM)
  MIC: 2 µg/mL (≈ 1.38 µM)
[3]; EC-07
  MBC: 8 µg/mL (≈ 5.52 µM)
  MIC: 8 µg/mL (≈ 5.52 µM)
[3]; EC-08
  MBC: 16 µg/mL (≈ 11 µM)
  MIC: 16 µg/mL (≈ 11 µM)
[3]; EC-09
  MBC: 2 µg/mL (≈ 1.38 µM)
  MIC: 2 µg/mL (≈ 1.38 µM)
[3]; EC-10
  MBC: 8 µg/mL (≈ 5.52 µM)
  MIC: 8 µg/mL (≈ 5.52 µM)
[3]; range over ten isolates
  MICs against colistin-resistant E. coli clinical isolates: 2 to 16 µg/mL
[4]
  MIC for the majority of (most) colistin-resistant K. pneumoniae isolates: > 128 µg/mL
[4]; K. pneumoniae ATCC BAA-1706
  MBC: 4 µg/mL (≈ 2.76 µM)
  MIC: 4 µg/mL (≈ 2.76 µM)
[4]; KP-01
  MBC: 16 µg/mL (≈ 11 µM)
  MIC: 16 µg/mL (≈ 11 µM)
[4]; KP-02
  MBC: 256 µg/mL (≈ 177 µM)
  MIC: 256 µg/mL (≈ 177 µM)
[4]; KP-03
  MBC: 128 µg/mL (≈ 88.3 µM)
  MIC: 128 µg/mL (≈ 88.3 µM)
[4]; KP-04
  MBC: 512 µg/mL (≈ 353 µM)
  MIC: 512 µg/mL (≈ 353 µM)
[4]; KP-05
  MBC: 32 µg/mL (≈ 22.1 µM)
  MIC: 32 µg/mL (≈ 22.1 µM)
[4]; KP-06
  MBC: 256 µg/mL (≈ 177 µM)
  MIC: 256 µg/mL (≈ 177 µM)
[4]; KP-07
  MBC: 128 µg/mL (≈ 88.3 µM)
  MIC: 128 µg/mL (≈ 88.3 µM)
[4]; KP-08
  MBC: 256 µg/mL (≈ 177 µM)
  MIC: 256 µg/mL (≈ 177 µM)
[4]; KP-09
  MBC: 512 µg/mL (≈ 353 µM)
  MIC: 512 µg/mL (≈ 353 µM)
[4]; KP-10
  MBC: 512 µg/mL (≈ 353 µM)
  MIC: 512 µg/mL (≈ 353 µM)
[4]; range over ten isolates
  MIC against colistin-resistant K. pneumoniae clinical isolates: 16 to 512 µg/mL
[5]; 200 μg/mL, 24 h
  Cell viability at highest concentration: 56.01%
[5]; 24 h exposure
  IC50: > 200 µg/mL
